Data as given in ChEMBL document CHEMBL6177963, “Development of acylhydrazone linked thiazoles as non-covalent dual inhibitors of SARS-CoV-2 proteases” (Eur J Med Chem, 2025).

Key:
Human coronavirus 229E = assay: Antiviral activity against HCoV-229E infected in human Huh7.5 Fluc cells; type: functional, organism-based
[1] = Cytotoxicity against African green monkey Vero E6 cells assessed as cell viability at 10 uM measured after 48 hrs by MTT assay relative to control; type: toxicity, cell-based, Vero C1008; settings: chlorocebus sabaeus, read-out: Activity
[2] = Cytotoxicity against human HEK293 cells assessed as cell viability measured after 48 hrs by MTT assay; type: toxicity, cell-based
[3] = target: Replicase polyprotein 1ab (Severe acute respiratory syndrome coronavirus 2, UniProt P0DTD1); assay: Inhibition of SARS-CoV-2 PLPro
[4] = Inhibition of SARS-CoV-2 MPro using Dabcyl-KTSAVLQ/SGFRKME- (Edans) as substrate by FRET assay; design: species or system Severe acute respiratory syndrome coronavirus 2

**Q.** Which IC50 (Human coronavirus 229E) does the source give for C=C1NC(=O)[C@]2(C)CSC(=N2)c2csc(n2)[C@]2(C)CSC(=N2)C([C@@H](C)CC)NC(=O)[C@@H](C)NC(=O)/C(=C\C(C)C)COC(=O)c2csc(n2)[C@H](C(C)C)N(C)C(=O)[C@H](COC)NC1=O (stereo not given in full) here?
**A.** 2.39 µM

**Q.** Which viability at 48 h, 10 µM [1] does the source give for COc1cccc2c1C(=O)c1c(O)c3c(c(O)c1C2=O)C[C@@](O)(C(=O)CO)C[C@@H]3O[C@H]1C[C@H](N)[C@H](O)[C@H](C)O1 [DOXORUBICIN] here?
**A.** 38.2%

**Q.** And the IC50 at 48 h [2]?
**A.** 8.23 µM

**Q.** With O=C(O)c1cc(F)c2nc(N3[C@@H]4CC[C@H]3C[C@@H](OCc3c(-c5ccccc5OC(F)(F)F)noc3C3CC3)C4)sc2c1 [TROPIFEXOR] as the compound, how does the IC50 [3] read?
**A.** 5.11 µM

**Q.** Which IC50 [4] does the source give for N#Cc1ccc2nc(N3C(=O)CSC3c3c(F)cccc3Cl)sc2c1 (stereo not given) here?
**A.** 0.01 µM
